“Also recorded” adds a separate entry of the source. Where two headings read alike, the source gives them in different places.
Key:
[1] = system: metastatic colorectal carcinoma; conditions: single agent; cited from earlier work
head and neck carcinoma = conditions: single agent; cited from earlier work
breast cancer = conditions: cited from earlier work; for curative effect of the single agent: alone, metastatic breast cancer patients; for antitumor activity: single agent
[2] = system: non-small cell lung cancer; conditions: single agent; cited from earlier work
dihydrofolate reductase = conditions: cited from earlier work
smallcell lung cancer = conditions: single agent; cited from earlier work
a number of tumors = conditions: preclinical tests; cited from earlier work
[3] = cited from earlier work
non-Hodgkin's lymphoma = conditions: single agent; cited from earlier work
sensitive tumor cells = conditions: cited from earlier work
in vivo = conditions: mouse, in vivo, ip
Description: (§1) Combination treatment in mice. The P388 lymphoidal tumor was transplanted intraperitoneally (10^6 cells/mouse) into […] mice. The animals were randomized into control and treated groups after tumor implant. […] Therapy was repeated three times at four day intervals between each treatment.

P388 Murine Tumor = experiment: in vivo; conditions: for Increased Life-Span / Long-term Survivors / Median Survival Time (± SEM): at maximum tolerated dose, q4d × 3 ip
Description: as §1

[4] = system: refractory ovarian cancer; conditions: in vivo; cited from earlier work
microtubules = conditions: cited from earlier work

For `CCC(Cc1cnc2nc(N)nc(N)c2n1)c1ccc(C(=O)N[C@@H](CCC(=O)O)C(=O)O)cc1` (some centres unmarked) [EDX, 10-ethyl-10-deaza-aminopterin], the anti-tumor activity [1] is given as “No anti-tumor activity was observed”, the antitumor activity (head and neck carcinoma) is given as “Antitumor activity of edatrexate has also been observed” and the “curative effect of the single agent” value (breast cancer) is given as “neither edatrexate nor paclitaxel alone is curative for most metastatic breast cancer patients”. The antitumor activity (breast cancer) was “Antitumor activity of edatrexate has also been observed”, the response rates [2] was roughly 30% and the “inhibition of dihydrofolate reductase” value (dihydrofolate reductase; listed as Edatrexate) was “inhibits dihydrofolate reductase”. For the same compound, the “inhibition of dihydrofolate reductase” value (dihydrofolate reductase; listed as edatrexate) was “inhibitor of dihydrofolate reductase”, the anti-tumor activity (smallcell lung cancer) was “No anti-tumor activity was observed” and the “antitumor activity compared with methotrexate” value (a number of tumors) was “greater antitumor activity than methotrexate against a number of tumors”. The “dosage limit due to side effects” value ([3]; given occasionally) was “up to 120 mg/m^2 /week”, the primary toxic effect ([3]; single agent) was “mucositis” and the “dosage limit due to side effects” value ([3]; usual) was 80 mg/m^2 body surface area/week. For the same compound, the antitumor activity (non-Hodgkin's lymphoma) was “Antitumor activity of edatrexate has also been observed”, the “accumulation / retention in tumor cells compared with methotrexate” value (sensitive tumor cells) was “accumulated in sensitive tumor cells to a greater extent than its predecessor methotrexate and was more selectively retained by the tumor cells” and the MTD (in vivo) was 100 mg/kg. For the same compound, the “Therapeutic activity (in words)” value (P388 Murine Tumor; P388 in mice, maximum tolerated dose) was “more effective than MTX”, the “Increased Life-Span” value (P388 Murine Tumor) was “+338%” and the “Long-term Survivors” value (P388 Murine Tumor) was 1/5. For the same compound, the “Median Survival Time (± SEM)” value (P388 Murine Tumor) was 35 ± 4 days.

For `CN(Cc1cnc2nc(N)nc(N)c2n1)c1ccc(C(=O)N[C@@H](CCC(=O)O)C(=O)O)cc1` [MTX, methotrexate], the “inhibition of dihydrofolate reductase” value (dihydrofolate reductase) is listed as “inhibitor of dihydrofolate reductase; also recorded: inhibits dihydrofolate reductase”, the MTD (in vivo) is listed as 55 mg/kg and the “Long-term Survivors” value (P388 Murine Tumor) is listed as 0/5. For the same compound, the “Median Survival Time (± SEM)” value (P388 Murine Tumor) was 27 ± 3 days.

For `CC(=O)O[C@H]1C(=O)[C@@]2(C)[C@H]([C@H](OC(=O)c3ccccc3)[C@]3(O)C[C@H](OC(=O)[C@H](O)[C@@H](NC(=O)c4ccccc4)c4ccccc4)C(C)=C1C3(C)C)[C@]1(OC(C)=O)CO[C@@H]1C[C@@H]2O` [TXL, paclitaxel], the “curative effect of the single agent” value (breast cancer) is listed as “neither edatrexate nor paclitaxel alone is curative for most metastatic breast cancer patients”, the antitumor activity (breast cancer) is listed as “anti-tumor properties in some breast cancer patients” and the activity [4] is listed as “activity against refractory ovarian cancer”. For the same compound, the “effect on microtubule assembly and stability” value (microtubules) was “promotes the assembly of microtubules from tubulin dimers and stabilizes microtubules by preventing depolymerization”, the “primary dose limiting toxic effect” value ([3]; single agent) was “myelosuppression” and the MTD (in vivo) was 18 mg/kg. For the same compound, the “Increased Life-Span” value (P388 Murine Tumor) was “+100%”, the “Long-term Survivors” value (P388 Murine Tumor) was 0/5 and the “Median Survival Time (± SEM)” value (P388 Murine Tumor) was 16 ± 2 days.

From patent US6262054A (priority 1996, dated 2001)
